Data as given in the supplement of paper PMC8882468.

Tests used:
Assay in all cases: CTG-3D luminescence at 96 h relative to day-0 seeding control (ratio to day 0); higher = more growth / less cytotoxicity; PDxO 3D drug screen, 96 h, CTG-3D normalised to day-0 seeding control.
HCI-001 = tested on: HCI-001 (organoid from a triple-negative breast cancer xenograft)
HCI-002 = tested on: HCI-002 (organoid from a triple-negative breast cancer xenograft)
HCI-003.E2 = tested on: HCI-003.E2 (organoid from an ER-positive breast cancer xenograft)
HCI-019 = tested on: HCI-019 (organoid from a triple-negative breast cancer xenograft)
HCI-024 = tested on: HCI-024 (organoid from a breast cancer xenograft)

C=CCn1c(=O)c2cnc(Nc3ccc(N4CCN(C)CC4)cc3)nc2n1-c1cccc(C(C)(C)O)n1 [adavosertib]
CTG-3D luminescence at 96 h
Conditions | 12.5 pM | 0.00025 µM | 0.005 µM | 0.1 µM | 1 µM | 10 µM | 100 µM | 625 fM
HCI-001, days in culture: 240 | 1.67 | 0.913 | 1.22 | 0.745 | 0.618 | 0.244 | 0.152 | 1.51
HCI-001, days in culture: 260 | 1.62 | 1.31 | 2.32 | 1.44 | 1.04 | 0.27 | 0.15 | 1.14
HCI-001, days in culture: 269 | 1.43 | 1.7 | 1.59 | 1.8 | 0.496 | 0.254 | 0.087 | 1.65
HCI-001, days in culture: 327 | 1.54 | 1.49 | 1.68 | 1.68 | 1.18 | 0.193 | 0.182 | 1.68
HCI-001, days in culture: 346 | 1.44 | 1.34 | 1.22 | 1.52 | 1.48 | 0.163 | 0.121 | 1.33
HCI-001, days in culture: 364 | 1.41 | 1.15 | 1.37 | 1.17 | 0.983 | 0.13 | 0.0626 | 1.6
HCI-002, days in culture: 62 | 3.1 | 2.91 | 2.73 | 2.4 | 1.32 | 0.225 | 0.324 | 2.86
HCI-002, days in culture: 82 | 2.82 | 2.68 | 2.02 | 2.52 | 1.53 | 0.198 | 0.134 | 2.69
HCI-002, days in culture: 91 | 3.69 | 3.67 | 3.79 | 3.35 | 1.82 | 0.274 | 0.495 | 4.31
HCI-002, days in culture: 191 | 2.59 | 2.7 | 2.5 | 2.3 | 1.76 | 0.247 | 0.507 | 2.47
HCI-002, days in culture: 209 | 2.27 | 2.42 | 2.11 | 1.89 | 1.5 | 0.217 | 0.128 | 2.35
HCI-002, days in culture: 227 | 6.7 | 6.34 | 6.07 | 6.24 | 2.13 | 0.312 | 0.123 | 6.55
HCI-019, days in culture: 110 | 2.05 | 1.58 | 1.23 | 1.52 | 0.377 | 0.536 | 0.502 | 2.37
HCI-019, days in culture: 131 | 2.63 | 3.93 | 2.52 | 2.25 | 0.386 | 0.381 | 0.4 | 3.56
HCI-019, days in culture: 152 | 2.43 | 2.43 | 3.28 | 1.42 | 0.511 | 0.452 | 0.519 | 2.53
HCI-024, days in culture: 105 | 1.61 | 1.66 | 1.14 | 1.44 | 0.852 | 0.412 | 0.179 | 2.06
HCI-024, days in culture: 122 | 1.86 | 2.07 | 1.99 | 2.01 | 1.38 | 0.414 | 0.145 | 2.52
HCI-024, days in culture: 163 | 2.11 | 2.21 | 1.86 | 2.44 | 1.82 | 0.466 | 0.225 | 2.56

HCI-003.E2
Conditions | CTG-3D luminescence at 96 h
12.5 pM | 2.18
0.00025 µM | 2.35
0.005 µM | 2.25
0.1 µM | 2.28
1 µM | 1.54
10 µM | 0.668
100 µM | 0.388
625 fM | 2.01

CC[C@H](NC(=O)[C@H](C)NC)C(=O)N1C[C@@H](O)C[C@H]1Cc1c(-c2[nH]c3cc(F)ccc3c2C[C@@H]2C[C@H](O)CN2C(=O)[C@H](CC)NC(=O)[C@H](C)NC)[nH]c2cc(F)ccc12 [birinapant]
CTG-3D luminescence at 96 h
Conditions | 12.5 pM | 0.00025 µM | 0.005 µM | 0.1 µM | 1 µM | 10 µM | 100 µM | 625 fM
HCI-001, days in culture: 240 | 1.73 | 1.11 | 0.766 | 1.19 | 1.35 | 0.911 | 0.0991 | 1.19
HCI-001, days in culture: 260 | 2.4 | 0.757 | 1.95 | 1.48 | 1.34 | 1.44 | 0.312 | 1.51
HCI-001, days in culture: 269 | 1.5 | 1.67 | 1.54 | 1.87 | 1.68 | 2.3 | -0.0177 | 1.65
HCI-001, days in culture: 327 | 1.48 | 1.44 | 1.63 | 1.67 | 1.34 | 1.26 | 0.695 | 1.57
HCI-001, days in culture: 346 | 1.48 | 1.48 | 1.12 | 1.08 | 1.35 | 1.42 | 1.37 | 1.14
HCI-001, days in culture: 364 | 1.38 | 1.05 | 1.4 | 1.27 | 1.07 | 1.32 | 1.04 | 1.5
HCI-002, days in culture: 62 | 3.08 | 2.09 | 2.65 | 1.51 | 1.03 | 0.891 | 0.234 | 2.96
HCI-002, days in culture: 82 | 3 | 2.82 | 1.96 | 1.59 | 0.689 | 0.62 | 0.148 | 3.06
HCI-002, days in culture: 91 | 4.14 | 3.62 | 3.4 | 2.64 | 1.62 | 1.38 | 0.408 | 4.22
HCI-002, days in culture: 191 | 2.67 | 2.28 | 2.58 | 1.73 | 1.31 | 0.959 | 0.188 | 2.59
HCI-002, days in culture: 209 | 2.21 | 2.16 | 1.88 | 0.886 | 0.527 | 0.44 | 0.127 | 2.18
HCI-002, days in culture: 227 | 6.23 | 5.92 | 5.21 | 2.45 | 1.39 | 1.41 | -0.1 | 6.13
HCI-019, days in culture: 110 | 1.9 | 2.21 | 1.18 | 0.993 | 0.634 | 1.01 | 0.351 | 1.87
HCI-019, days in culture: 131 | 2.64 | 3.89 | 2.09 | 3.03 | 1.34 | 2.65 | 0.638 | 3.16
HCI-019, days in culture: 152 | 2.72 | 2 | 2.1 | 1.49 | 0.853 | 1.05 | 0.336 | 1.84
HCI-024, days in culture: 105 | 1.4 | 1.17 | 0.375 | 0.175 | 0.139 | 0.177 | 0.0272 | 1.84
HCI-024, days in culture: 122 | 1.7 | 1.71 | 0.726 | 0.194 | 0.134 | 0.237 | 0.0303 | 2.58
HCI-024, days in culture: 163 | 1.8 | 1.36 | 0.525 | 0.315 | 0.255 | 0.23 | 0.0734 | 2.09

HCI-003.E2
Conditions | CTG-3D luminescence at 96 h
12.5 pM | 2.21
0.00025 µM | 2.35
0.005 µM | 2.12
0.1 µM | 2.07
1 µM | 1.98
10 µM | 2.07
100 µM | 1.08
625 fM | 2.08
